Series [1] has as its system virus-specific CD8^+ T cells. Also noted: species or system mice. The settings on record: mouse, in vivo.
The test system of series [2] is virus-specific memory CD4^+ T cells. Also noted: species or system mice. The settings on record: mouse, in vivo.
Series [3] deals with DbGP33 tetramer-positive CD8^+ T cells. Kind of series: rAd5-LCMV-GP vaccination with low dose rapamycin. It is filed as in vivo, mice. As for the experimental part:
Mice were vaccinated with rAd5-LCMV-GP (1×10^10 viral particles) by intramuscular injection on Day 0 and either left untreated or treated with rapamycin at a dose of 0.075 mg/kg from Day −1 to Day 34 (FIG. 19A). The number of DbGP33 tetramer-positive CD8^+ T cells in the spleen of treated and untreated mice was determined by FACS on Day 35 post-vaccination. […] The phenotype of virus-specific CD8^+ T cells was also evaluated by FACS (FIG. 19C).

The subject of series [4] is vaccinia virus-specific CD8^+ T cells. Also on record: species or system Rhesus macaques (Macaca mulatta). Conditions: rhesus monkey, in vivo.
The subject of another series is P14 cells. The class given is in vivo, mice.
Series [5] concerns vaccinia virus (VV) that expresses the GP33 epitope (VVgp33). Also on record: species or system mice. The settings on record: mouse, in vivo.
Series [6] deals with virus-specific CD8^+ T cells. Also noted: species or system mice. The settings on record: mouse, in vivo. The source holds these as a separate data set.
The subject of series [7] is virus-specific CD8^+ T cells. Also on record: species or system mice. The settings on record: mouse, in vivo. The source holds these as a separate data set.
The test system of series [8] is virus-specific CD8^+ T cells. Also noted: species or system mice. The settings on record: mouse, in vivo. This is another data set of the same source.
The subject of a further series is P14 memory cells. It is filed as in vivo, mice.
For series [9], the system named is CD62L^low effector CD8^+ T cells (P14 cells). It is filed as in vivo, mice.
A further series relates to P14 memory T cells. It is filed as in vivo. The settings on record: VVGP33 challenge, vs memory cells of untreated mice.
The conditions of series [10]: mice.
The conditions of series [11]: rhesus macaques, approximately 10-50 μg/kg/day intramuscularly.
The next series has as its system LCMV. Also on record: species or system mice. Conditions: mouse, in vivo.
The test system of series [12] is LCMV-specific CD8^+ T cells (P14 cells). Also on record: species or system mice. The settings on record: mouse, in vivo.
Series [13] deals with antigen-specific CD8^+ T cells. Also on record: species or system mice. Conditions: mouse, in vivo.
The subject of series [14] is DbGP33 tetramer-positive P14 cells. The class given is in vivo, mice.
Series [15] concerns GP33 epitope-specific memory CD8^+ T cells (P14 cells). Description: Rapamycin during T cell maintenance phase, adoptively transferred CFSE-labeled memory P14 cells. It is filed as in vivo, mice.
Series [16] relates to FKBP12 RNAi retrovirus transduced P14 cells. Also noted: species or system mice. The settings on record: mouse, in vivo.
In series [17] the test system is GP33 epitope-specific CD8^+ T cells. The class given is in vivo, mice.
The next series has as its system FKBP12. It is filed as cell-based, mice. The settings on record: GFP^+ P14 cells, Day 7 or 8 post-infection.
In a further series the test system is raptor. The class given is cell-based, mice. The settings on record: GFP^+ P14 cells, Day 7 or 8 post-infection.
The test system of series [18] is LCMV-specific P14 transgenic CD8^+ T cells. Also on record: species or system mice. The settings on record: mouse, in vivo.
[19] abbreviates: Day 31 post-infection, spleen, relative to control.

Entries after “also recorded” stand apart in the source; their conditions may differ. Read-outs that look alike come from different tables or passages of the source.

For the molecule `CO[C@H]1C[C@@H]2CC[C@@H](C)[C@@](O)(O2)C(=O)C(=O)N2CCCC[C@H]2C(=O)O[C@H]([C@H](C)C[C@@H]2CC[C@@H](O)[C@H](OC)C2)CC(=O)[C@H](C)/C=C(\C)[C@@H](O)[C@@H](OC)C(=O)[C@H](C)C[C@H](C)/C=C/C=C/C=C/1C` [rapamycin, (3S,6R,7E,9R,10R,12R,14S,15E,17E,19E,21S,23S,26R,27R,34aS)-9,10,12,13,14,21,22,23,24,25,26,27,32,33,34,34a-hexadecahydro-9,27-dihydroxy-3-[(1R)-2-[(1S,3R,4R)-4-hydroxy-3-methoxycyclohexyl]-1-methylethyl]-10,21-dimethoxy-6,8,12,14,20,26-hexamethyl-23,27-epoxy-3H-pyrido[2,1-c][1,4]-oxaazacyclohentriacontine-1,5,11,28,29(4H,6H,31H)-pentone], in series [1], the “LCMV-specific CD8^+ T cell response” value is listed as “enhanced”; the “contraction of the T cell response” value is recorded as “minimal contraction”; the “expression of CD127, CD62L, and Bcl-2 on memory CD8^+ T cells” value is reported as “higher levels”; the “frequency of KLRG-1^Low memory CD8^+ T cells” value is reported as “higher frequency”. Also, in series [1], the “number of GP33 epitope-specific CD8^+ T cells in PBMCs” value was “higher number”; the “number of epitope-specific CD8^+ T cells (GP33, GP276, NP396, NP205, GP118) in spleen” value is “enhanced the number”; the “numbers of antigen-specific CD8^+ T cells in lymphoid and non-lymphoid tissues” value was “Increased numbers”; the “phenotype of virus-specific CD8^+ T cells” value is recorded as “CD127^High CD62L^High KLRG-1^Low Bcl-2^High phenotype”. In addition, the “number of IFN-γ^+ CD4^+ T cells upon GP61 peptide stimulation” value in [2] is recorded as “higher number of IFN-γ^+ cells”. For the same molecule, the “number of virus-specific (DbGP33 tetramer-positive) CD8^+ T cells in spleen” value in series [3] (0.075 mg/kg Day -1 to Day 34, Day 35 post-vaccination) is reported as “significantly increased”. Also, the “phenotype of virus-specific CD8^+ T cells” value in series [3] (0.075 mg/kg Day -1 to Day 34, spleen Day 35) is given as “markers of high quality memory T cells (CD127^High, CD62L^High, KLRG-1^Low, Bcl-2^High)”. In [4], the T cell contraction entry was “slower” and the “number of memory CD8^+ T cells maintained” value is listed as “higher number”. Besides, the “number of virus-specific CD8^+ T cells (P14) in spleen” value with P14 cells (0.6 mg/kg daily from Day 8 after VV infection, Day 31, vs control) is listed as “similar”. Moreover, in the series on P14 cells (setting [19]), the “expression of CD27 and Bcl-2 on virus-specific CD8^+ T cells” value is reported as “higher”; the “expression of KLRG-1 on virus-specific CD8^+ T cells” value is on record as “lower”. Besides, the “CD127 and CD62L expression on virus-specific CD8^+ T cells” value in the series with P14 cells (Day 31 post-infection, spleen, vs control) was “no significant difference”. In series [5], the “protective immunity (viral control)” value was “better” and the “viral titer in the ovaries” value is “reduction in viral titer”. Moreover, the “percentage of virus-specific CD8^+ T cells (DbGP33 tetramer) in PBMCs” value in series [6] was 2.49%. Further, in series [7], the “Bcl-2 expression of virus-specific CD8^+ T cells in lymph node” value was “higher than control”, the “cell surface markers of virus-specific CD8^+ T cells in lymph node” value was “no significant change”, the “number of memory cells generated” value is on record as “not affected” and the “number of virus-specific CD8^+ T cells in the spleen” value is “did not reduce”. In series [7], the “number of virus-specific CD8^+ T cells with phenotype of highly functional memory cells” value is on record as “significantly higher number”; the “phenotype of GP33, GP276 and NP396 epitope-specific CD8^+ T cells in spleen” value is “high quality memory T cells (CD127^High, CD62L^High, KLRG-1^Low, CD27^High, Bcl-2^High)”. Moreover, in series [8], the “Bcl-2 expression in Day 8 effector CD8^+ T cells” value is listed as “higher levels”, the “death of effector CD8^+ T cells during contraction phase” value was “only minimal death”, the “phenotype of memory CD8^+ T cells” value is “similar” and the “proportion of CD127^High KLRG-1^Low cells among Day 8 effector CD8^+ T cells” value is given as “higher proportion”. Besides, the “percentage of P14 memory cells that divided more than twice in spleen” value with P14 memory cells (30 days post-transfer, control 36.8%) is reported as 46.1%. Further, the “percentage of divided memory T cells in PBMC” value in the series on P14 memory cells (memory cells from rapamycin-treated mice (Example 1), up to 30 days post-transfer) is recorded as “increased”. Further, the “homeostatic proliferation of memory CD8^+ T cells generated with rapamycin” value with P14 memory cells (rapamycin Day -1 to Day 33, 30 days post transfer, vs memory cells of untreated mice) was “superior”. The “CD62L re-expression on transferred virus-specific CD8^+ T cells” value in [9] (0.6 mg/kg daily after transfer, blood/PBMC, vs control mice) was “quickly re-expressed CD62L; also recorded: re-expressed CD62L much faster”. Also, the “absolute number of CD62L^High virus-specific CD8^+ T cells in spleen” value in series [9] (0.6 mg/kg daily, Day 26 post-transfer, vs untreated) is reported as “greater”. The “cell division during CD62L re-expression (CFSE)” value in series [9] (effector to memory transition phase after transfer) is given as “no or minimal cell division; also recorded: no cell division”. Besides, in the series with P14 memory T cells, the “recall responses of memory CD8^+ T cells generated with rapamycin” value is “superior”. The same molecule came in with a blood concentration in series [10] (0.6 mg/kg (600 μg/kg) intraperitoneally daily) of 40 to 100 ng/mL. The blood concentration in series [10] (low dose 0.075 mg/kg (75 μg/kg) daily) lay in the range of 5 to 20 ng/mL. For the same molecule, in series [11], the “Blood levels of rapamycin” value lay within 5 to 15 ng/mL. Besides, the “LCMV titer relative to untreated mice” value in the series on LCMV was “significantly increased”. Moreover, in [12], the “expression of CD127 and CD62L on LCMV-specific CD8^+ T cells” value was “enhanced expression”; the “percentage of virus-specific CD8^+ T cells in PBMCs” value was “greater”; the recall responses is “enhanced”. The “incorporation of BrdU by antigen-specific CD8^+ T cells” value in series [13] was “minimal incorporation”. In addition, the “absolute number of DbGP33 tetramer-positive P14 cells in spleen” value in [14] (Day 5 post-challenge, vs untreated) is given as “greater”. Also, the “recall responses of memory CD8^+ T cells differentiated with rapamycin” value in series [14] (rapamycin 25 days, VVGP33 challenge Day 28 post-transfer) is listed as “better”. Also, the “percentage of DbGP33 tetramer-positive P14 cells in the spleen” value in series [14] (rapamycin for 25 days, VVgp33 challenge Day 28, Day 5 post-challenge, untreated 1.69%) is 4.93%. For the same molecule, the “number of virus-specific CD8^+ T cells in the spleen” value in series [15] (0.6 mg/kg daily from Day -1, Day 42 post-transfer, vs untreated) was “decreased”. The “percentage of virus-specific CD8^+ T cells that divided more than twice (CFSE)” value in [15] (0.6 mg/kg daily, Day 42 post-transfer, untreated 42.5%) is on record as 17.8%. In series [16], the “effect of rapamycin treatment on phenotype / memory differentiation of FKBP12 knockdown P14 cells” value is “diminished; also recorded: almost disappeared” and the “expression of memory markers (CD127, CD62L, Bcl2) on FKBP12 knockdown P14 cells under rapamycin” value was “did not show increased expression”. In addition, the “phenotype of antigen-specific CD8^+ T cells from spleen” value in series [17] (34 days post-immunization) is recorded as “markers of high quality memory T cells (CD127^High, CD62L^High, KLRG-1^Low, Bcl-2^High)”. In addition, the “memory T cell numbers relative to control” value in series [17] (165 days after stopping the drug treatment) is given as 10 fold. Also, in series [17] (PBMC and spleen (Day 34), vs control), the “number of antigen-specific CD8^+ T cells maintained” value was “higher number”. Also, the “expansion of GP33 epitope-specific CD8^+ T cells after VLP immunization” value in series [17] (low dose rapamycin from Day -1, PBMC, vs control) was “expanded similarly”. Besides, in series [17] (mouse, in vivo), the “magnitude and quality of VLP-induced memory CD8^+ T cells” value is “enhanced both the magnitude and the quality”.

For the molecule “FKBP12 shRNA (guide GCCAAACTGATAATCTCCTCA)”, in the series with FKBP12, the “Expression of FKBP12 protein” value is “significantly reduced”.

“raptor shRNA (guide GCCCGAGTCTGTGAATGTAAT)”: in the series with raptor, the “Expression of raptor protein” value was “significantly reduced”. For the same molecule, in series [18], the “expression of phenotypic markers on antigen-specific T cells” value is recorded as “identical to what was observed upon knockdown of mTOR” and the “virus-specific memory T cell phenotype in spleen” value is recorded as “high quality memory T cell phenotype (CD127^High, CD62L^high KLRG-1^Low)”.

The values are drawn from patent US8840899B2, “Use of mTOR inhibitors to enhance T cell immune responses” (priority 2008, dated 2014).
